Test results published in ChEMBL document CHEMBL1909046, “DrugMatrix in vitro pharmacology data”.

Key:
[1] = target: T1, Alpha-1D adrenergic receptor (Homo sapiens, UniProt P25100); assay type: cell membranes, HEK293, Membrane; also: in other assays of this panel Not Active means under 50% inhibition at 10 µM
T1 sequence (P25100 whole entry): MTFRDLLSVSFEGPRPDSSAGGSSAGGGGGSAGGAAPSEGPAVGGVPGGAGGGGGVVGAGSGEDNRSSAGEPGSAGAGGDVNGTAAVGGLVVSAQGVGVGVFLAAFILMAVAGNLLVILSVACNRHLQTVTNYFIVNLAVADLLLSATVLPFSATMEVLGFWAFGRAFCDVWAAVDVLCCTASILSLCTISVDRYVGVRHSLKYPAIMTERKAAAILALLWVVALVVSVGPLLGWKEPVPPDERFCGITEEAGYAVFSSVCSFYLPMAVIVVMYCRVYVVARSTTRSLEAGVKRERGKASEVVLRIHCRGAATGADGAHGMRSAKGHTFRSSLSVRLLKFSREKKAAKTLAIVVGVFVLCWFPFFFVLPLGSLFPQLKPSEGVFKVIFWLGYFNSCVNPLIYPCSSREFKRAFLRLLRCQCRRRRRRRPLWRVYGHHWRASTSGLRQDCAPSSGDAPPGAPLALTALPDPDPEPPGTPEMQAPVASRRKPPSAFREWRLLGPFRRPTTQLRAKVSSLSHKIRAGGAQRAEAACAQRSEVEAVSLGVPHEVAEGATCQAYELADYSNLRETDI

Cytochrome P450 2C19 = Cytochrome P450 2C19 (Homo sapiens, UniProt P33261); settings: bti-tn-5b1-4; also: in other assays of this panel Not Active means under 50% inhibition at 10 µM
[2] = target: Matrix metalloproteinase-9 (Homo sapiens, UniProt P14780); test: biochemical; assay type: cell-based;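 also: inhibition of isolated MMP-9 enzyme activity toward a synthetic peptide substrate, from the DrugMatrix protease screening panel; in other assays of this panel Not Active means under 50% inhibition at 10 µM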
Glycine receptor = Glycine receptor (Rattus norvegicus, UniProt P22771+P24524+P07727+P20781); assay type: cell membranes, Wistar, Spinal cord, Membrane; also: in other assays of this panel Not Active means under 50% inhibition at 10 µM
[3] = target: T2, Alpha-2C adrenergic receptor (Homo sapiens, UniProt P18825); test: DRUGMATRIX: Adrenergic Alpha-2C radioligand binding (ligand: [3H] MK-912); assay type: cell membranes, Sf9, Membrane; as to IC50: call rule not given here
T2 sequence (P18825 whole entry): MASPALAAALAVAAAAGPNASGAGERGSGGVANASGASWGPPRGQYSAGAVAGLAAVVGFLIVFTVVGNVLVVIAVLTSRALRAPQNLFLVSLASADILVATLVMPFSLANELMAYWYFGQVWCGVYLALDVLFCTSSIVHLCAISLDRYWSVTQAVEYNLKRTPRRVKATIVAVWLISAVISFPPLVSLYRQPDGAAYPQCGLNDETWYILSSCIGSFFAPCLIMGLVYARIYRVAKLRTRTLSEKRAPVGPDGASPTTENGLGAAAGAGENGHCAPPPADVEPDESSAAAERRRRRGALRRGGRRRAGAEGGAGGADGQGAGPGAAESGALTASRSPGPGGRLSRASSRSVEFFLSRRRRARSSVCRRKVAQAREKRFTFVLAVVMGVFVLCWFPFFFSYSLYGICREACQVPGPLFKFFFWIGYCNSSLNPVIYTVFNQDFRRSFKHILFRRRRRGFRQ

[4] = target: C-C chemokine receptor type 2 (Homo sapiens, UniProt P41597); assay type: cell membranes, CHO-K1, Membrane; settings: cho-k1; also: in other assays of this panel Not Active means under 50% inhibition at 10 µM
Chain of C-C chemokine receptor type 2 (P41597 whole entry): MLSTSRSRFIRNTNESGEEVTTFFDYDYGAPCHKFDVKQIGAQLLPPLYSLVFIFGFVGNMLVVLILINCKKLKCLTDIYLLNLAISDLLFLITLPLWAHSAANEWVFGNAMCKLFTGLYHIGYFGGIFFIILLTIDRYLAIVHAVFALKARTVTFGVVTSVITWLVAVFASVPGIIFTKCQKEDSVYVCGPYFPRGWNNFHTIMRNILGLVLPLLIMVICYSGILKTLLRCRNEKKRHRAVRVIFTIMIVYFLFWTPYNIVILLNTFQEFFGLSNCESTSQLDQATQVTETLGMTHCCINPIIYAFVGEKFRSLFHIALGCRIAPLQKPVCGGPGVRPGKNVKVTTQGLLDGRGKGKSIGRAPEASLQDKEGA

Chain of Matrix metalloproteinase-9 (P14780 whole entry): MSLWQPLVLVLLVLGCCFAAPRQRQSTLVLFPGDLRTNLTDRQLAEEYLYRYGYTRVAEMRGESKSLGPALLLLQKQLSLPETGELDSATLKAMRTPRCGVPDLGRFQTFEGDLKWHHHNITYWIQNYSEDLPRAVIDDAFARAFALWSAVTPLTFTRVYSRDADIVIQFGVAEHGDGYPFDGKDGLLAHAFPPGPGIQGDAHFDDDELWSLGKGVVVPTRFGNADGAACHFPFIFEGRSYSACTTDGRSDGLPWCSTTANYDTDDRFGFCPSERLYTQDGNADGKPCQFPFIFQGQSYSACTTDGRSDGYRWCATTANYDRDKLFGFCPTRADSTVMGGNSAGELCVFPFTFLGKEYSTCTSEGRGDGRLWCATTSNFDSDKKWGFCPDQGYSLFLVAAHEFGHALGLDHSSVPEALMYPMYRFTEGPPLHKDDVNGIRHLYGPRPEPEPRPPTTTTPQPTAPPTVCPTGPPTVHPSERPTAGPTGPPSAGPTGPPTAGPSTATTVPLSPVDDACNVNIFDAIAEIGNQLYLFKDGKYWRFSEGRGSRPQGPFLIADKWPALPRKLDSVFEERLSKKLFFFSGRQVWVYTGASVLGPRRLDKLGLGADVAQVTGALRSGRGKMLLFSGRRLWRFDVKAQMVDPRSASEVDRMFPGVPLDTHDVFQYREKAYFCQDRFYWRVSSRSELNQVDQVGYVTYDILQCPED
Chain of Cytochrome P450 2C19 (P33261 whole entry): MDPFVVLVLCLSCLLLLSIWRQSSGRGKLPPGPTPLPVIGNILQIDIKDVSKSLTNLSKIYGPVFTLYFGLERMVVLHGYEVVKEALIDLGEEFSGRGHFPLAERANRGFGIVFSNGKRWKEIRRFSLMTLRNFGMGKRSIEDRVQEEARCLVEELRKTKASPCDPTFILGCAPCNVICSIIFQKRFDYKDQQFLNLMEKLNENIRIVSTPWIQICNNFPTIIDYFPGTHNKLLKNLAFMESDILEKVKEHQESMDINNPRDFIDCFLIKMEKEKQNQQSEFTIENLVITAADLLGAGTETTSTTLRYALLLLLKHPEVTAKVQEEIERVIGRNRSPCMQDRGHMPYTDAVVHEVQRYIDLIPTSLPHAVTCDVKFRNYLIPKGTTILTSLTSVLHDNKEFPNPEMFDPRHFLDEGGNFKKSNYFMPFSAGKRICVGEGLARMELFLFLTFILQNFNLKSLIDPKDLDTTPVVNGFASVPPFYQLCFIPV

Molecule	IC50 ([1]; hek293)	IC50 (Cytochrome P450 2C19)	Ki (Cytochrome P450 2C19)	IC50 [2]	IC50 (Glycine receptor)	IC50 ([3]; sf9)	IC50 [4]	IC50 ([1]; read-out: IC50) [µM]	Ki ([1]; read-out: Ki) [µM]	IC50 ([3]; read-out: IC50) [µM]	Ki ([3]; read-out: Ki) [µM]	Ki ([1]; hek293)	Ki [2]	Ki (Glycine receptor)	Ki ([3]; sf9)	Ki [4]
N=C(N)NC(=O)c1nc(Cl)c(N)nc1N [AMILORIDE]	Not Active	Not Active	Not Active	Not Active	Not Active	Not Active	Not Active	–	–	–	–	–	–	–	–	–
CC(C)(Oc1ccc(C2CCCc3ccccc32)cc1)C(=O)O (stereo not given) [NAFENOPIN]	Not Active	Not Active	Not Active	Not Active	Not Active	Not Active	Not Active	–	–	–	–	–	–	–	–	–
Cc1cc2cc3c(C)cc(=O)oc3c(C)c2o1 [TRIOXSALEN]	Not Active	Not Active	Not Active	Not Active	Not Active	Not Active	Not Active	–	–	–	–	–	–	–	–	–
Oc1ccc(OCc2ccccc2)cc1 [MONOBENZONE]	Not Active	Not Active	Not Active	Not Active	Not Active	Not Active	Not Active	–	–	–	–	–	–	–	–	–
COc1cccc2c1C(=O)c1c(O)c3c(c(O)c1C2=O)C[C@@](O)(C(=O)CO)C[C@@H]3O[C@H]1C[C@H](N)[C@@H](O)[C@H](C)O1 [EPIRUBICIN]	Not Active	Not Active	Not Active	Not Active	Not Active	Not Active	Not Active	–	–	–	–	–	–	–	–	–
C#C[C@]1(O)CC[C@H]2[C@@H]3CCc4cc(OC)ccc4[C@H]3CC[C@@]21C [MESTRANOL]	Not Active	Not Active	Not Active	Not Active	Not Active	Not Active	Not Active	–	–	–	–	–	–	–	–	–
CN(C)c1ccc(C(=C2C=CC(=[N+](C)C)C=C2)c2ccc(N(C)C)cc2)cc1.[Cl-] [GENTIAN VIOLET]	–	Not Active	Not Active	Not Active	Not Active	–	Not Active	1.98	0.973	1.88	0.274	–	–	–	–	–
CC(=O)Nc1ccc(O)cc1 [ACETAMINOPHEN]	Not Active	Not Active	Not Active	Not Active	Not Active	Not Active	Not Active	–	–	–	–	–	–	–	–	–
CCCCN1CCCCC1C(=O)Nc1c(C)cccc1C.Cl (stereo not given) [BUPIVACAINE HYDROCHLORIDE]	Not Active	Not Active	Not Active	Not Active	Not Active	Not Active	Not Active	–	–	–	–	–	–	–	–	–
Nc1ccn([C@@H]2CS[C@H](CO)O2)c(=O)n1 [LAMIVUDINE]	Not Active	Not Active	Not Active	Not Active	Not Active	Not Active	Not Active	–	–	–	–	–	–	–	–	–
COP(=O)(OC)OC=C(Cl)Cl [DICHLORVOS]	Not Active	Not Active	Not Active	Not Active	Not Active	Not Active	Not Active	–	–	–	–	–	–	–	–	–
CADMIUM DICHLORIDE	Not Active	Not Active	Not Active	Not Active	Not Active	Not Active	Not Active	–	–	–	–	Not Active	Not Active	Not Active	Not Active	Not Active
Cc1nccn1CC1CCc2c(c3ccccc3n2C)C1=O (stereo not given) [ONDANSETRON]	Not Active	Not Active	Not Active	Not Active	Not Active	Not Active	Not Active	–	–	–	–	–	–	–	–	–
CCOC(=O)[C@H](CCc1ccccc1)N[C@H]1CCc2ccccc2N(CC(=O)O)C1=O [BENAZEPRIL]	Not Active	Not Active	Not Active	Not Active	Not Active	Not Active	Not Active	–	–	–	–	–	–	–	–	–
